For assay [1], the target named is T1, Alpha-1B adrenergic receptor (Rattus norvegicus, UniProt P15823).
T1 sequence (P15823 whole entry): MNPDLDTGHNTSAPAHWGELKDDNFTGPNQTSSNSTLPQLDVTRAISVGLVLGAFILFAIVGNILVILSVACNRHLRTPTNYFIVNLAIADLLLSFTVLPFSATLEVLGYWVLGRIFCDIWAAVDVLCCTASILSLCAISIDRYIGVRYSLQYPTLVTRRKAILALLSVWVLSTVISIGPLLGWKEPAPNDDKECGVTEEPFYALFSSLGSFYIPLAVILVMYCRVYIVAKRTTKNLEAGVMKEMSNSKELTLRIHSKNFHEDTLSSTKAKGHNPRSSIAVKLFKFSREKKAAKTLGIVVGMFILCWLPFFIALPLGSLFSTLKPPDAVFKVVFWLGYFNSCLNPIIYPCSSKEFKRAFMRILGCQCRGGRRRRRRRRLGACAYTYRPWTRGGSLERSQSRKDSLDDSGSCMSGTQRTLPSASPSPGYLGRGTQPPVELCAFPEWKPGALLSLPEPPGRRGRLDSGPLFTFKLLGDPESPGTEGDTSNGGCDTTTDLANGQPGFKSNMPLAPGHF
The assay can be described thus: DRUGMATRIX: Alpha-1B adrenergic receptor radioligand binding (ligand: prazosin). Type of assay: cell membranes, Wistar, Liver, Membrane. To be noted: Not Active = under 50% inhibition at 10 µM.

Another assay deals with Insulin receptor (Rattus norvegicus, UniProt P15127). Type of assay: cell membranes, Wistar, Liver, Membrane.
Sequence of Insulin receptor (P15127 27-759 limits assumed): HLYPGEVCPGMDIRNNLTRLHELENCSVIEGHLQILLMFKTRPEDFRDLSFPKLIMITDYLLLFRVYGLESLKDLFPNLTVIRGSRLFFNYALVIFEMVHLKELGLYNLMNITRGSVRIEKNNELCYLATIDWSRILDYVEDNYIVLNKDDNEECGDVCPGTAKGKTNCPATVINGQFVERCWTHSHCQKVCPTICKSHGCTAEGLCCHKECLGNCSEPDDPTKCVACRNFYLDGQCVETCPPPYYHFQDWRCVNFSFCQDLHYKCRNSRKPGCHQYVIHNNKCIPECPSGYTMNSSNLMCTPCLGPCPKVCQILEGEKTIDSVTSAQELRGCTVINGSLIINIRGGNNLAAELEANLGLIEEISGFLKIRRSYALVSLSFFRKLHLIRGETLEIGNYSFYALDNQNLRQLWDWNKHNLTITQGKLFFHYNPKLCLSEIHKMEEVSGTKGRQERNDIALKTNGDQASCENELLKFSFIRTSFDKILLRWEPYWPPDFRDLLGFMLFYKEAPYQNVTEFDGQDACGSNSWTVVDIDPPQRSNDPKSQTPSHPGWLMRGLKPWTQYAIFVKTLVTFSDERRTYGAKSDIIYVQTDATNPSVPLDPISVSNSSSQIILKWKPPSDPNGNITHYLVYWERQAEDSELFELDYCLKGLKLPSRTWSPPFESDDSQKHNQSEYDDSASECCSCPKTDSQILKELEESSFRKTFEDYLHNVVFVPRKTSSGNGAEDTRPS
Sequence of Insulin receptor (P15127 764-1383 limits assumed): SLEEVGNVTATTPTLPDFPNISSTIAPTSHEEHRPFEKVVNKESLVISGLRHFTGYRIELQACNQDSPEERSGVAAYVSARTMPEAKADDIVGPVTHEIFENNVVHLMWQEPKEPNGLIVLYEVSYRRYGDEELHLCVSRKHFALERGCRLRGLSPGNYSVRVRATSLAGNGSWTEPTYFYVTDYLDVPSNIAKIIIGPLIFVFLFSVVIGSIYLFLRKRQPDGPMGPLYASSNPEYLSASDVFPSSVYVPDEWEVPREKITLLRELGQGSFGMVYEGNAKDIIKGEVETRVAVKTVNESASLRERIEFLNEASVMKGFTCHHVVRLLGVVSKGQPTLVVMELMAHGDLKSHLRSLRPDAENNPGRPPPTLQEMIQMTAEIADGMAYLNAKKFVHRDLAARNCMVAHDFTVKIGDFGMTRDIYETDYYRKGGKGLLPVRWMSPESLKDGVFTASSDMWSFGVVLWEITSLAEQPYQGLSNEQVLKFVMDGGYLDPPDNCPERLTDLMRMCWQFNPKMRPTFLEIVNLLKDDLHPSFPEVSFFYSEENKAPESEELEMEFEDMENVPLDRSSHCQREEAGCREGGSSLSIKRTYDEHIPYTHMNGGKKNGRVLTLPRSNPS
Another assay has as its target Melanocortin receptor 3 (Homo sapiens, UniProt P41968). Type of assay: cell membranes, HEK293, Membrane. To be noted: hek293. Also: in other assays of this panel Not Active means under 50% inhibition at 10 µM.
For the next assay, the target named is Melanocortin receptor 4 (Homo sapiens, UniProt P32245). Type of assay: cell membranes, HEK293, Membrane. The following applies: hek293. Also: in other assays of this panel Not Active means under 50% inhibition at 10 µM.
Sequence of Melanocortin receptor 4 (P32245 whole entry): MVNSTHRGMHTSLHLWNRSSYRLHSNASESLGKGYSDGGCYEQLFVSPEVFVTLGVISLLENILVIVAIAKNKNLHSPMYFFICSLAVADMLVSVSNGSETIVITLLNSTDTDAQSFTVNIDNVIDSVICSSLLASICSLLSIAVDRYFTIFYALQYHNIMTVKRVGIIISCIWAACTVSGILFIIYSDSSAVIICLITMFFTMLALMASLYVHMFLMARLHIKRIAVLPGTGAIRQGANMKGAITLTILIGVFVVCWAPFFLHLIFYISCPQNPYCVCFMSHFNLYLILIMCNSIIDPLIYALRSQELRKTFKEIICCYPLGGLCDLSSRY
For the next assay, the target named is Nitric oxide synthase 1 (Rattus norvegicus, UniProt P29476). Type of assay: tissue-based, Cerebellum. Also: in other assays of this panel Not Active means under 50% inhibition at 10 µM.
Sequence of Nitric oxide synthase 1 (P29476 whole entry): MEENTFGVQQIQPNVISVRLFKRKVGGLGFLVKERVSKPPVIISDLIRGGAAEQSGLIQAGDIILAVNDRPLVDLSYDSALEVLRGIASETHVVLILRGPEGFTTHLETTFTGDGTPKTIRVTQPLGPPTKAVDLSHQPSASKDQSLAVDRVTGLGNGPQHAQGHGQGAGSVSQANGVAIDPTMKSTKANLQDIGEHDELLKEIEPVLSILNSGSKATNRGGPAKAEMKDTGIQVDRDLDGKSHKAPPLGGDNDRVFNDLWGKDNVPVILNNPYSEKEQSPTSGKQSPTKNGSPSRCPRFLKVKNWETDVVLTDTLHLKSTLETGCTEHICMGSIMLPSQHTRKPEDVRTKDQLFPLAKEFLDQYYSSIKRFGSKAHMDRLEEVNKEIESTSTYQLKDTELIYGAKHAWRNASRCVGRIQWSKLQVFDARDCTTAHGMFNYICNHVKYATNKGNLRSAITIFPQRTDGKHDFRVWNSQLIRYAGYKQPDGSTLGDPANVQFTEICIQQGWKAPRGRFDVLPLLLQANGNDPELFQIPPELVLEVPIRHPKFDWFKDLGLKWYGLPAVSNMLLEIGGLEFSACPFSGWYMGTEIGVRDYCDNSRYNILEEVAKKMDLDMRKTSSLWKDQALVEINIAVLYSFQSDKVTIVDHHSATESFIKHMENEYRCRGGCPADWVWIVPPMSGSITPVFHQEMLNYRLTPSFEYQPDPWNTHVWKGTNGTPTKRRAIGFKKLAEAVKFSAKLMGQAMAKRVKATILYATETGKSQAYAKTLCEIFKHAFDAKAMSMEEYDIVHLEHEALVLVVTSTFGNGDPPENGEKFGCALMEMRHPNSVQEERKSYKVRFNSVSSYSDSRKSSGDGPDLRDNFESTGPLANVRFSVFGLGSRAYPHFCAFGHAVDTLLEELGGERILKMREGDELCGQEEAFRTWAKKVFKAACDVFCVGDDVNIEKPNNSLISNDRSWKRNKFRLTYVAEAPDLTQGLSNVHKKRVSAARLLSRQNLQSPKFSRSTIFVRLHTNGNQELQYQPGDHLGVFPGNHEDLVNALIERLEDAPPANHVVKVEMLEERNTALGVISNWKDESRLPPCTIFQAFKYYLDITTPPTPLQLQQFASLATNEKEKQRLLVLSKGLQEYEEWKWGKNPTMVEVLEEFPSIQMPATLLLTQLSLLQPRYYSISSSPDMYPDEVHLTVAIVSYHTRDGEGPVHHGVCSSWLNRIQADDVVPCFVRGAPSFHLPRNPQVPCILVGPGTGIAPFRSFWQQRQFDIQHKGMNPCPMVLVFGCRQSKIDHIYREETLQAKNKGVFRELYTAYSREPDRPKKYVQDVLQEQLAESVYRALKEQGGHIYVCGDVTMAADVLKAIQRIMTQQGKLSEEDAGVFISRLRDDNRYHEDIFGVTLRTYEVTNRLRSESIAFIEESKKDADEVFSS
A further assay concerns the target Adenosine receptor A2a (Homo sapiens, UniProt P29274). The assay can be described thus: DRUGMATRIX: Adenosine A2A radioligand binding (ligand: […]). Type of assay: cell membranes, HEK293, Membrane. The following applies: hek293; Not Active = under 50% inhibition at 10 µM.

Sequence of Adenosine receptor A2a (P29274 whole entry): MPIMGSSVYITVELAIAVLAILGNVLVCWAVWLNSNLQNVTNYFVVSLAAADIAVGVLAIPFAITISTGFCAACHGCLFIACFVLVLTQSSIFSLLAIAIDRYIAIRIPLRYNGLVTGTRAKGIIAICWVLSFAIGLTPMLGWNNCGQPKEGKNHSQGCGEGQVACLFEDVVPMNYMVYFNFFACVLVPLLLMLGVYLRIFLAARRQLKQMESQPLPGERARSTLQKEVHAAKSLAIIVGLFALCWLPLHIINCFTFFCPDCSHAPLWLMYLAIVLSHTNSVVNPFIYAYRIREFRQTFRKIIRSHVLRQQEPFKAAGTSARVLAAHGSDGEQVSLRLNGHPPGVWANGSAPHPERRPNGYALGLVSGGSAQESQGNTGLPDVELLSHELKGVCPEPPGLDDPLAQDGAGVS
Sequence of Melanocortin receptor 3 (P41968 whole entry): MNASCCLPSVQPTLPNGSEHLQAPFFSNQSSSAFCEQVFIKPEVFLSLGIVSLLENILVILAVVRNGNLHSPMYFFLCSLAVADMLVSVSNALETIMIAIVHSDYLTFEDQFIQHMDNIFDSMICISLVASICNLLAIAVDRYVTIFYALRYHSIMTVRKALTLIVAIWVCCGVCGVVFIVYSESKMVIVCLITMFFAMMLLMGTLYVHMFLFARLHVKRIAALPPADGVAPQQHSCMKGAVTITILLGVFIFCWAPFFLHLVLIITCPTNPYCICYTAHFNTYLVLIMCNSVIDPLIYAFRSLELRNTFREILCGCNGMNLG

Usually IC50 stands for the concentration at which inhibition is half-maximal. For `O=C(Oc1ccccc1C(=O)O)c1ccccc1O` [SALSALATE], the IC50 entry (in assay [1]; against Insulin receptor; against Melanocortin receptor 3; against Melanocortin receptor 4; against Nitric oxide synthase 1; at Adenosine receptor A2a) was “Not Active” throughout.

For the molecule `CC(C)NCC(O)c1ccc(NS(C)(=O)=O)cc1` (configuration not stated) [SOTALOL], the concentration for half-maximal inhibition (IC50) entry (in assay [1]; against Insulin receptor; on Melanocortin receptor 3; against Melanocortin receptor 4; against Nitric oxide synthase 1; at Adenosine receptor A2a) was “Not Active” throughout.

The Ki is a dissociation constant, usually derived from enzyme kinetics or from competition with a known ligand. Consider MANGANESE CHLORIDE ANHYDROUS, for which the IC50 result (in assay [1]; on Insulin receptor; at Melanocortin receptor 3; on Melanocortin receptor 4; against Nitric oxide synthase 1; on Adenosine receptor A2a) was “Not Active” in each case. The inhibition constant (Ki) result (in assay [1]; at Insulin receptor; at Melanocortin receptor 3; on Melanocortin receptor 4; on Nitric oxide synthase 1; on Adenosine receptor A2a) was “Not Active” each time.

`O.O.O.O.O.O.[Cl-].[Cl-].[Sr+2]` [STRONTIUM CHLORIDE HEXAHYDRATE]: the IC50 result (in assay [1]; against Insulin receptor; against Melanocortin receptor 3; against Melanocortin receptor 4; against Nitric oxide synthase 1; at Adenosine receptor A2a) was “Not Active” throughout.

As for `Nc1cc(N2CCCCC2)nc(N)[n+]1[O-]` [MINOXIDIL], the IC50 entry (in assay [1]; at Insulin receptor; against Melanocortin receptor 3; against Melanocortin receptor 4; against Nitric oxide synthase 1; on Adenosine receptor A2a) was “Not Active” each time.

As to `CO[C@H]1/C=C/O[C@@]2(C)Oc3c(C)c(O)c4c(O)c(c(/C=N/N5CCN(C6CCCC6)CC5)c(O)c4c3C2=O)NC(=O)/C(C)=C\C=C\[C@H](C)[C@H](O)[C@@H](C)[C@@H](O)[C@@H](C)[C@H](OC(C)=O)[C@@H]1C` [RIFAPENTINE], the IC50 result (in assay [1]; on Insulin receptor; against Melanocortin receptor 3; against Melanocortin receptor 4; against Nitric oxide synthase 1; on Adenosine receptor A2a) was “Not Active” throughout.

On to `Cc1cccc(C)c1OCC(C)N` (configuration not stated) [MEXILETINE], for which the IC50 entry (in assay [1]; on Insulin receptor; against Melanocortin receptor 3; against Melanocortin receptor 4; against Nitric oxide synthase 1; on Adenosine receptor A2a) was “Not Active” in each case.

With `COc1c2occc2cc2ccc(=O)oc12` [METHOXSALEN], the IC50 entry (in assay [1]; against Insulin receptor; against Melanocortin receptor 3; on Melanocortin receptor 4; against Nitric oxide synthase 1; at Adenosine receptor A2a) was “Not Active” in each case.

As to `C[C@H]1C[C@@H]2[C@H]([C@@H](O)C[C@@]3(C)[C@H]2CC[C@]3(O)C(=O)CO)[C@@]2(C)C=CC(=O)C=C12` [METHYLPREDNISOLONE], the IC50 result (in assay [1]; against Insulin receptor; at Melanocortin receptor 3; at Melanocortin receptor 4; on Nitric oxide synthase 1; on Adenosine receptor A2a) was “Not Active” each time.

`COc1cc2nc(N3CCN(C(=O)C4CCCO4)CC3)nc(N)c2cc1OC` (configuration not stated) [TERAZOSIN]: the IC50 is 6.03 nM in assay [1] (read-out: IC50); “Not Active” at Insulin receptor; “Not Active” against Melanocortin receptor 3; “Not Active” against Melanocortin receptor 4; “Not Active” at Nitric oxide synthase 1; “Not Active” at Adenosine receptor A2a. Also, the Ki in assay [1] (read-out: Ki) was found to be 3.33 nM.

On to `CC(c1cc2ccccc2s1)N(O)C(N)=O` (configuration not stated) [ZILEUTON], for which the IC50 entry (in assay [1]; at Insulin receptor; against Melanocortin receptor 3; at Melanocortin receptor 4; at Nitric oxide synthase 1; on Adenosine receptor A2a) was “Not Active” each time.

Consider `O=C1C(CC[S+]([O-])c2ccccc2)C(=O)N(c2ccccc2)N1c1ccccc1` (configuration not stated) [SULFINPYRAZONE], for which the IC50 entry (in assay [1]; against Insulin receptor; against Melanocortin receptor 3; against Melanocortin receptor 4; at Nitric oxide synthase 1; at Adenosine receptor A2a) was “Not Active” in each case.

With `CCN1CCC[C@H]1CNC(=O)c1cc(S(N)(=O)=O)ccc1OC` [LEVOSULPIRIDE], the IC50 entry (in assay [1]; at Insulin receptor; against Melanocortin receptor 3; against Melanocortin receptor 4; against Nitric oxide synthase 1; on Adenosine receptor A2a) was “Not Active” each time.

`CCN(CC)CCNC(=O)c1cc(S(C)(=O)=O)ccc1OC` [TIAPRIDE]: the IC50 entry (in assay [1]; against Insulin receptor; against Melanocortin receptor 3; on Melanocortin receptor 4; on Nitric oxide synthase 1; on Adenosine receptor A2a) was “Not Active” each time.

Turning to `CCCCOc1cc(CC2CNC(=O)N2)ccc1OC` (configuration not stated) [RO-201724], the IC50 result (in assay [1]; at Insulin receptor; at Melanocortin receptor 3; against Melanocortin receptor 4; against Nitric oxide synthase 1; at Adenosine receptor A2a) was “Not Active” throughout.

The record behind these values is ChEMBL document CHEMBL1909046, “DrugMatrix in vitro pharmacology data”.
